This note sets out measurements from PubChem BioAssay (NCI).

Several values for one entry are separate records, joined by “and”; a condition that tells them apart may be missing. Equal entries are not always repeated.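 Results reflect a 48-hour exposure of cells in 96-well plates to compound at five concentrations. Abbreviation: GI50, concentration required for 50% inhibition of growth. At the TGI there is no net growth.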 Some results are limits rather than exact numbers.

The assay deals with MDA-MB-468 breast. The assay can be described thus: inhibition of tumour cell growth, NCI panel, 48 h.
Regarding `COc1ccc2cc(-c3c(-c4ccncc4)nc(-c4ccc(S(C)=O)cc4C)n3C)ccc2c1` (stereo not given), the GI50 was 9.07 µM and the TGI was over 25 µM.

For the compound `C1=C2CNCC3=Cc4ccc5ccccc5c4OC23Oc2c1ccc1ccccc21`, the GI50 is 2.06 µM and the TGI was 7.55 µM.

Regarding `COc1ccccc1/C=C\C(=O)c1ccccc1`, the GI50 is 3.97 µM and the TGI was determined as 19.1 µM.

Turning to `COc1cc2cc(Oc3ccc(NC(=O)c4cccc5c4OCCO5)cc3)c(C)nc2cc1OC`, the GI50 was 2.93 µM and the TGI came to 48.7 µM.

In the case of `O=C(/C=C/c1cn(-c2ccccc2)nc1-c1ccc([N+](=O)[O-])cc1)c1ccc(Cl)cc1`, the GI50 is 2.91 µM and the TGI was over 100 µM.

For `COc1ccc2[nH]c(-c3ccccc3)cc2c1`, the GI50 is 47 µM and the TGI is over 100 µM.

For the compound `CN(C)CCCC1(c2ccc(F)cc2)OCc2cc(-c3cncc4ccccc34)ccc21` (stereo not given), the GI50 was 1.55 µM and the TGI was found to be 3.19 µM.

Regarding `CCCn1cnc2c(SCc3ccccc3)nc(N)nc21`, the GI50 is 23.6 µM and the TGI was over 100 µM.

For `O=c1oc2ccc(F)cc2c(=O)n1-c1ccc(Br)cc1F`, the GI50 was 1.53 µM and the TGI is 5.49 µM.

Turning to `CCNC(=O)Oc1ccc(/C(=C(/C)c2ccc(OC)cc2)c2ccc(OCCN3CCCCCC3)cc2)cc1`, the GI50 is 2.05 µM and the TGI was determined as 8.09 µM.

Take `C[C@@H]1C/C=C\C(=O)O[C@H](/C=C/C#C/C=C/C(C)(C)[C@@H](O)c2cccc(O)c2Br)[C@@H](C)/C=C/[C@H](C)C[C@H](OC(N)=O)C1`: the GI50 is 0.0611 µM and the TGI came to 17.8 µM.

For the compound `COc1cc2nnn3c4ncccc4c(N=O)c3c2cc1OC`, the GI50 is 0.156 µM and the TGI worked out at 1.09 µM.

For the compound `O=C(Nc1ccccc1O)c1ccc(CNC(=O)c2ccsc2Nc2ccnc(C(F)(F)F)c2)cc1`, the GI50 is 1.43 µM and the TGI came to 3.53 µM.

`Cc1cc(NC(=O)NC(=O)c2ccccc2N(C)C)ccc1Oc1ncc(Br)cn1`: the GI50 is 0.49 µM and the TGI was over 100 µM.

`O=C1C=C(N2CCN(c3ccccn3)CC2)C(=O)c2c(O)ccc(O)c21`: the GI50 is 2.75 µM.

Turning to `NC(=O)c1cc(I)ccc1NC(=O)COc1ccccc1`, the GI50 is 0.311 µM.

Turning to `O=C(Cc1ccc(/C=C/C(=O)c2ncc[nH]2)cc1)Nc1ccc(C(F)(F)F)cc1`, the GI50 is 1.77 µM and the TGI is 6.84 µM.

Regarding `CCC(=O)c1cc([N+](=O)[O-])c(Br)s1`, the GI50 was 1.92 µM and the TGI came to 3.69 µM.

With `CCCNC(=O)CCC(C)[C@H]1CCC2C3C(C[C@H](OC(C)=O)[C@@]21C)[C@@]1(C)CCC2(C[C@H]1C[C@H]3OC(C)=O)OOC1(CCCCC1)OO2` (stereo not given in full), the GI50 is 1.89 µM and the TGI was 6.77 µM.

As for `Fc1c[c-]c(-c2ccccn2)c(F)c1.[CH3-].[Pt+2].c1ccc(P(C[PH+](c2ccccc2)c2ccccc2)c2ccccc2)cc1`, the GI50 is 0.325 µM and the TGI amounted to 0.946 µM.

For the compound `CCCCCCOc1ccc(C(=N)N(CCCC)CCCC)c2ccccc12`, the GI50 was 0.59 µM and the TGI was 2.01 µM.

On to `O=C(CCN1CCCC1)Nc1ccc2c(Nc3ccccc3)c3ccccc3nc2c1`, for which the GI50 is 0.182 µM and the TGI amounted to 1.6 µM.

With `Nc1ccn([C@@H]2C(F)=C(CO)[C@@H](O)[C@H]2O)c(=O)n1`, the GI50 is 31.2 µM and the TGI was over 100 µM.

With `COc1ccc(C(=O)C[C@]2(O)C(=O)Nc3c(Cl)ccc(Cl)c32)cc1`, the GI50 is 0.395 µM and the TGI is over 67.1 µM.

Regarding `O=C(Nc1ccc(Cl)cc1)Nc1ccccc1CNc1nc(Nc2ccc(OCCN3CCCC3)cc2)ncc1Cl`, the GI50 is 0.998 µM and the TGI worked out at 2.28 µM.

`COc1ccc(NC(=O)c2sc3nc4c(cc3c2N)CCCC4)cc1`: the GI50 is 0.481 µM and the TGI stood at 96.4 µM.

On to `CC(=O)Oc1ccc(C2(c3ccc(OC(C)=O)cc3)C(=O)Nc3ccccc32)cc1`, for which the GI50 is 0.0682 µM and 0.0738 µM; the TGI is 40.8 µM and 91 µM.

With `Cc1cc(=O)oc2cc(OCCn3c(C)nn(-c4ccc(Cl)cc4)c3=O)ccc12`, the GI50 was 2.69 µM and the TGI was 57.6 µM.

For `COc1ccc(-c2nc3c(c(=O)n2C(C)=O)C(c2ccc(Cl)cc2)c2sc4c(Cl)cccc4c2O3)cc1` (stereo not given), the GI50 was 0.234 µM and the TGI came out at 0.571 µM.

For the compound `Nc1ncnc2c1c(-c1ccc(Oc3ccccc3)cc1)nn2C[C@@H]1SSC[C@@H]1O`, the GI50 is 0.4 µM and the TGI was 2.19 µM.

Consider `Cn1cnc([N+](=O)[O-])c1Sc1nc(N)nc2nc[nH]c12`, for which the GI50 was 0.884 µM and the TGI came out at 6.11 µM.

Regarding `CN(C)C(=O)SC1=C(c2c(Cl)cccc2Cl)C(=O)c2ccccc21`, the GI50 was 1.97 µM and the TGI came out at 4.15 µM.

As to `COC(=O)[C@H](Cc1ccccc1)NC(=O)c1csc([C@@H](C[C@H](C(C)C)N(C)C(=O)[C@@H](NC(=O)[C@H]2CCCN2C)C2CC2)OC(C)=O)n1`, the GI50 was 0.153 µM and the TGI was over 33.3 µM.

Take `Oc1[nH]c2ccccc2c1/C=c1/cc2c(c(-c3ccc(C(F)(F)F)cc3)n1)=Nc1ccccc1-2`: the GI50 is 3.82 µM and the TGI was 16.1 µM.

Regarding `CCO/C=N/C1=C(C#N)C(c2ccc(Cl)cc2)c2sc3c(CC)cccc3c2O1` (stereo not given), the GI50 is 0.911 µM and the TGI was 11 µM.

Regarding `CC[C@H](C)[C@H](NC(=O)[C@H]1CCCCN1C)C(=O)N(C)[C@H](C[C@@H](OC(C)=O)c1nc(C(=O)N[C@@H](Cc2ccccc2)C[C@H](C)C(=O)OC)cs1)C(C)C`, the TGI is 4.45 µM.

For `CN(C)C/C=C/C(=O)Nc1ccc(C(=O)N2CCC[C@@H](Nc3ncc(Cl)c(-c4c[nH]c5ccccc45)n3)C2)cc1`, the GI50 is 0.0249 µM and the TGI was determined as 0.0722 µM.

Turning to `Cn1cc(CO)c2ccccc21`, the GI50 was 10.5 µM and the TGI amounted to 48.7 µM.

For the compound `c1ccc(CC(NCCNC(Cc2ccccc2)c2ccccc2)c2ccccc2)cc1` (stereo not given), the GI50 is 0.255 µM and the TGI was determined as 0.745 µM.

Regarding `COc1cc(-n2cc(-c3cc(O)c(C/C=C(\C)CCC=C(C)C)c(O)c3)nn2)cc2c1O[C@]1(C)CC[C@@H](O)C(C)(C)[C@H]1C2`, the GI50 was 0.88 µM and the TGI worked out at 4.89 µM.

Turning to `CCc1cccc(CC)c1/C=C/c1cncc(C(=O)NC)c1`, the GI50 was 4.03 µM and the TGI is 20.6 µM.

Turning to `CN(C)CCCN1c2ccccc2Sc2ccc(Cl)cc21`, the GI50 was 1.67 µM and 1.81 µM; the TGI is 3.54 µM and 4.62 µM.

With `COc1ccc(-c2cc(/C=C/C(=O)c3cc(OC)c(OC)c(OC)c3)[nH]n2)cc1OC`, the GI50 is 1.33 µM and the TGI worked out at 3.27 µM.

For `Cc1n(Cc2ccc3ccccc3c2)c(Cl)c(Cl)[n+]1Cc1ccc2ccccc2c1`, the GI50 was 1.09 µM and the TGI turned out to be 2.92 µM.
